Test results from patent US9604899B2, “Bipolar trans carotenoid salts and their uses” (Diffusion Pharmaceuticals LLC, priority 2002, dated 2017).

Experiments:
hemorrhaged rats [1] = assay: hemorrhagic shock in rats (Roy et al); details: rat, in vivo
Method: In Roy et al, Shock 10, 213-7. (1998), hemorrhaged rats (55% blood volume) were given a bolus of trans sodium crocetinate (TSC) after the hemorrhage ended, followed by saline after another 30 minutes. […] Whole-body oxygen consumption increased in the TSC group, reaching 75% of normal resting value after about 15 minutes.

[2] = dissolution in normal (isotonic) saline and other salt solutions; assay type: physicochemical; details: up to several milligrams per ml added
Method: Large volumes (as much as 3 times the estimated blood loss) of isotonic saline (also called normal saline) are infused as a treatment for hemorrhagic shock. The isotonic saline contains 9 g NaCl per liter of water so as not to disturb the ionic strength of the plasma once it is infused into the body. […] About 50% of the TSC dissolves in normal saline no matter how much TSC is added (up to several milligrams per ml), which means that undissolved particles of TSC are still present. […] The actual composition of the stock solution can be verified using UV-visible spectroscopy. This stock solution can be added to normal saline and the TSC remains dissolved.
This method can be used to dissolve a BTCS in other types of sodium chloride solutions, as well as in solutions of other salts such as KCl, Na2SO4, lactate, etc. Several, eg 1-3 mg/ml, can be put into solution in this manner.

[3] = TSC by inhalation, drug in blood stream; assay type: in vivo, rat; details: rats
Method: TSC has been given to rats via an inhalation route. Ten rats were given TSC directly into the lungs. This was done by inserting a tube into the trachea, and nebulizing 0.2 ml of TSC solution (TSC dissolved in dilute sodium carbonate solution) with about 3 to 6 mls of air. For all dosages studied (0.5-2 mg/kg), about 20% of the drug was present in the blood stream within one minute after it was given.

[4] = stability (aqueous solution, dry form); details: tap, distilled, deionized water
[5] = oral administration of TSC (gavage), drug in blood stream; assay type: in vivo, rat; details: two rats, 15 to 30 minutes after being given
Excerpt: TSC has been shown, in rats, to be absorbed into the blood stream when administered orally (via a gavage technique). […] The maximum amount absorbed orally actually occurred earlier than that time.

[6] = simulated TSC molecule surrounded with water molecules; cited from earlier work
[7] = solubility in common organic solvents; assay type: physicochemical; details: chloroform, DMSO, pyridine, methanol, acetone, glacial acetic acid
Excerpt: Attempts were made to dissolve TSC in order to obtain a ^1H NMR spectrum. […] The TSC produced from this project was characterized by IR, UV, HPLC and elemental analyses. […] UV and HPLC were consistent with authentic TSC.^7 Elemental analyses gave satisfactory values.

[8] = test system: rat model of acute hypoxia; details: 10% oxygen air mixture, TSC given after 10 minutes; cited from earlier work
[9] = diffusivity of oxygen through aqueous solutions
[10] = solubility in sodium carbonate-deionized water solution (pH 8.0); assay type: physicochemical; details: pH 8, aqueous buffer, thermodynamic from solid, pH 8.0, room temperature, read-out: solubility in water adjusted to pH 8.0 with very dilute sodium carbonate
Method: A BTCS such as TSC dissolves in very dilute sodium carbonate solutions. A dilute, eg 0.00001-0.001M, solution of sodium carbonate can be added, dropwise, to deionized water until the pH is 8.0 (the pH of deionized water is usually 5-6). This only takes a few drops of the very dilute sodium carbonate per, say, 50 mls of deionized water. This sodium carbonate-deionized water solution is capable of completely dissolving a large amount of TSC (around 10 mg/ml)—which is remarkable considering the hydrophobicity of the carotenoid portion of the BTCS.

hemorrhaged rats [11] = details: cited from earlier work
[12] = background statement; cited from earlier work

Row | SMILES | oxygen consumption of rats undergoing hemorrhagic shock (hemorrhaged rats [1]) | fraction of added TSC that dissolves in normal saline [2] | period the drug was present in the blood stream ([3]; inhalation, 0.8-1.6 mg/kg) | fraction of the drug present in the blood stream ([3]; nebulized into trachea, 0.5-2 mg/kg, within one minute) | stability of solutions in water [4] | fraction of the dosage given present in the blood stream [5] [%] | computational increase in diffusivity [6] [%] | solubility in most common organic solvents [7] | survival and hemodynamic stability [8] | solubility in deionized water versus normal water (solubility in water) | solubility (solubility in water; water) [mg/mL] | increase of diffusivity of oxygen through aqueous solutions [9] | solubility [10] [mg/mL] | whole-body oxygen consumption (hemorrhaged rats [11]; hemorrhaged rats, after about 15 minutes) | survival (hemorrhaged rats [11]; rats hemorrhaged 55% blood volume, TSC bolus after hemorrhage, saline after 30 minutes) | solubility in water [12]
1 | CC(/C=C/C=C(\C)C(=O)[O-])=C\C=C\C=C(C)\C=C\C=C(/C)C(=O)[O-].[Na+].[Na+] [TSC, Trans Sodium Crocetinate] | increase the oxygen consumption | About 50% | at least two hours | about 20% | only stable if the pH is adjusted so as to make the solution basic | 1 to 2 | ~30 | practically insoluble | all survived with good hemodynamic stability for over two hours | more soluble in deionized water | ~10 | about 30% | ~10 | 75 % of normal resting value | All of the TSC-treated animals lived | 
2 | CC(/C=C/C=C(\C)C(=O)O)=C\C=C\C=C(C)\C=C\C=C(/C)C(=O)O [crocetin] |  |  |  |  |  |  |  |  |  |  |  |  |  |  |  | only sparingly soluble in water
3 | CC(/C=C/C=C(\C)C(=O)O[C@@H]1O[C@H](CO[C@@H]2O[C@H](CO)[C@@H](O)[C@H](O)[C@H]2O)[C@@H](O)[C@H](O)[C@H]1O)=C\C=C\C=C(C)\C=C\C=C(/C)C(=O)O[C@@H]1O[C@H](CO[C@@H]2O[C@H](CO)[C@@H](O)[C@H](O)[C@H]2O)[C@@H](O)[C@H](O)[C@H]1O [crocin] |  |  |  |  |  |  |  |  |  |  |  |  |  |  |  | significant solubility in water
